The test system of test [1] is hematopoietic recovery after cyclophosphamide. Description: Hematopoietic recovery after cyclophosphamide (Example 59). It is filed as in vivo, Balb/C mice. Conditions: days 5 and 7; 25 mg/kg/day i.p. How it is done: Cyclophosphamide (CP) (275 mg/kg, i.p.) was administered to 28 Balb/C female mice weighing approximately 20 grams each. Twenty-four hours later and each day for 4 days thereafter, mice were given a 0.4 ml i.p. injection of either physiological saline (controls) or palmitoyl-8-aminoguanosine (25 mg/kg/day in 0.2% Tween 80). On days 5 and 7 following CP administration 7 animals from each of the 2 groups were bled and then were sacrificed by cervical dislocation. Spleens were removed and weighed, and complete blood cell counts performed.

The test system is the same in test [2]. Description: Hematopoietic recovery after cyclophosphamide (Example 51). It is filed as in vivo, Balb/C mice. Conditions: day 5; 2 μmoles/mouse. As to the method: Cyclophosphamide (CP) (275 mg/kg, i.p.) was administered to 88 Balb/C female mice weighing approximately 20 grams each. Twenty-four hours later and each day thereafter mice were given a 0.4 ml i.p. injection of either Tween-80 (0.2%) (controls), 3'-O-palmitoyldeoxyguanosine (2 μmoles/mouse), butyryldeoxyguanosine (2 μmoles/mouse), palmitoyl-N-isobutyryldeoxyguanosine (2 μmoles/mouse), lauryldeoxyguanosine (2 μmoles/mouse), octanoyldeoxyguanosine (2 μmoles/mouse), and palmitoyldeoxyguanosine (2 μmoles/mouse). On days 5 and 7 following CP administration 6 or 7 animals in each of the 7 groups were bled and then sacrificed by cervical dislocation. Spleens were removed and weighed, and complete blood cell counts performed.

The test system of test [3] is hematopoiesis in normal mice. Description: Hematopoiesis in normal mice (Example 56). It is filed as in vivo, Balb/C mice. Particulars: day 5, 2.6 μmoles/mouse, 4 days. As to the method:
Normal Balb/C female mice weighing approximately 20 grams each were given a daily 0.4 ml i.p. injection of either physiological saline (controls), palmitoylguanosine (2.6 μmoles/mouse), palmitoyldeoxyguanosine (2.6 μmoles/mouse), monopalmitoylguanosine 2',3'-acyclic dialcohol (2.6 μmoles/mouse), and palmitoyl-8-bromoguanosine (2.6 μmoles/mouse) for 4 days. On the fifth day all 3 animals in each of the 5 groups were bled and then sacrificed by cervical dislocation. Spleens were removed and weighed, and complete blood cell counts performed. Femoral bone marrow from each mouse was collected and a differential cell count performed on marrow smears.

In test [4] the test system is hematopoietic recovery after cyclophosphamide. The test can be described thus: Comparative dose-response, hematopoietic recovery after cyclophosphamide (Example 53). It is filed as in vivo, Balb/C mice. As to the method:
Cyclophosphamide (CP) (275 mg/kg, i.p.) was administered to 96 Balb/C female mice weighing approximately 20 grams each. Twenty-four hours later and each day thereafter mice were given a 0.4 ml i.p. injection of either physiological saline (controls), palmitoylguanosine at one of four different doses: 0.2, 0.4, 1.0 or 2.0 μmoles/mouse), or palmitoyldeoxyguanosine at a dose of 1.0 μmoles/mouse. On days 5 and 7 following CP administration 8 animals from each of the 6 groups were bled and then sacrificed by cervical dislocation. Spleens were removed and weighed, and complete blood cell counts performed.

Test [5] shares this test system. Description: Recovery of blood cell counts in rats after cyclophosphamide (Example 55). It is filed as in vivo, F344 rats. As to the method: Cyclophosphamide (CP) (40 mg/kg, i.p.) was administered to 16 F344 male rats weighing approximately 200 grams each. Twenty-four hours later and each day thereafter rats were given a 0.5 ml i.p. injection of either physiological saline (controls), or palmitoyldeoxyguanosine at a dose of […]. On days 5, 7 and 10 following CP administration all 8 animals from both groups were bled and complete blood cell counts performed. On day 10 all of the rats were sacrificed and their spleens removed and weighed.

Test [6] deals with Interleukin-3 dependent bone marrow cells. Conditions: 10 micrograms per milliliter.
Protocol: Bone marrow cells were obtained by flushing the femurs of three male B6D2F1 mice. The cells were plated at 5.0×10^5 /ml in MEM plus 10% fetal calf serum and 25 Units/ml of recombinant IL-3 for 24-48 hours. Non-adherent cells were then separated from adherent cells and maintained for an additional twelve days. IL-3 was washed from cells, and cells were plated in MEM plus 10% fetal calf serum in the presence or absence of IL-3 and with or without the addition of palmitoyldeoxyguanosine (10 micrograms per milliliter) or deoxyguanosine (10 micrograms per milliliter). Cells were counted using the trypan blue exclusion method, and the percent of dead cells (trypan blue positive) was determined at 24, 40, 60 and 84 hours following the wash.
The test system of test [7] is hematopoietic recovery after cyclophosphamide. The test can be described thus: Dose-response, hematopoietic recovery after cyclophosphamide (Example 54). It is filed as in vivo, Balb/C mice. As to the method:
Cyclophosphamide (CP) (275 mg/kg, i.p.) was administered to 112 Balb/C female mice weighing approximately 20 grams each. Twenty-four hours later and each day thereafter mice were given a 0.4 ml i.p. injection of either physiological saline (controls), or palmitoyldeoxyguanosine at one of six different doses: 0.04, 0.08, 0.2, 0.4, 0.6 or 0.8 μmoles/mouse. On days 5 and 7 following CP administration 8 animals from each of the 7 groups were bled and then sacrificed by cervical dislocation. Spleens were removed and weighed, and complete blood cell counts performed.

The test system of test [8] is hematopoietic recovery from fluorouracil. Description: Pretreatment, hematopoietic recovery from fluorouracil (Example 57). It is filed as in vivo, Balb/C mice. How it is done: Twenty-eight female Balb/C mice weighing approximately 20 grams each received a 0.4 ml i.p. injection of either physiological saline (controls), or palmitoyldeoxyguanosine (1 μmole/mouse) daily for three days. On the fourth day 5-flourouracil (5-FU) (150 mg/kg, i.p.) was administered to all 28 of the animals. On days 5, 8 and 11 following 5-FU administration 4 (day 5) or 5 (days 8 and 11) animals from both groups were bled and then sacrificed by cervical dislocation. Spleens were removed and weighed, and complete blood cell counts performed.

Test [9] has as its system hematopoietic recovery after cyclophosphamide. The test can be described thus: Dose-response, hematopoietic recovery after cyclophosphamide (Example 52). It is filed as in vivo, Balb/C mice. Particulars: days 5 and 7; 0.2-2.0 μmoles/mouse, except 0.2 on day 5. As to the method:
Cyclophosphamide (CP) (275 mg/kg, i.p.) was administered to 85 Balb/C female mice weighing approximately 20 grams each. Twenty-four hours later and each day thereafter mice were given a 0.4 ml i.p. injection of either physiological saline (controls), or palmitoyldeoxyguanosine at one of four different doses: 0.2, 0.4, 1.0 or 2.0 μmoles/mouse). On days 5 and 7 following CP administration 9 and 8 animals, respectively, in each of the 5 groups were bled and then sacrificed by cervical dislocation. Spleens were removed and weighed, and complete blood cell counts performed.

For test [10] the test system is unchanged. Description: Hematopoietic recovery after cyclophosphamide, acyl chain length (Example 38). Conditions: day 7; guanosine 5, acyl derivatives 2.5 μmoles/mouse/day i.p. It is filed as in vivo, Balb/C mice. How it is done:
Cyclophosphamide (CP) (275 mg/kg, i.p.) was administered to 70 Balb/C female mice weighing approximately 20 grams each. Twenty-four hours later and each day thereafter for a total of 6 days, mice were given a 0.4 ml i.p injection of either physiological saline (controls), Tween 80 (0.2%), guanosine (5 μmoles/mouse/day in 0.2% Tween 80), or 2.5 μmoles per mouse per day of one of the following acylated derivatives of guanosine in 0.2% Tween 80: triacetylguanosine, octanoylguanosine, lauroylguanosine, or palmitoylguanosine. On day 7 following CP administration all 10 animals from each of the 7 groups were bled, and then sacrificed by cervical dislocation. Spleens were removed and weighed, and complete blood counts performed.

For test [11] the test system is unchanged. The test can be described thus: Surfactants, hematopoietic recovery after cyclophosphamide (Example 58). It is filed as in vivo, Balb/C mice. Particulars: day 7. How it is done:
Twenty-four hours later and each day thereafter for a total of 6 days, mice were divided into seven groups and given a 0.4 ml i.p. injection of either physiological saline (controls), Tween 80 at each of three concentrations (0.02%, 0.2% and 1%) or octanoylguanosine (50 mg/kg/dose) in three different concentrations of Tween 80 (0.02%, 0.2% and 1%). On day 7 following CP administration all 9 animals from each of the […] were bled and then sacrificed by cervical dislocation. Spleens were removed and weighed, and complete blood cell counts performed.

Test [12] shares this test system. The test can be described thus: Histological examination of spleens and blood counts after cyclophosphamide (Example 46). Particulars: day 7. It is filed as in vivo, Balb/C mice. How it is done:
Cyclophosphamide (CP) (275 mg/kg, i.p.) was administered to 30 Balb/C female mice weighing approximately 20 grams each. Twenty-four hours later and each day thereafter for a total of 6 days, mice were given a 0.4 ml i.p. injection of either physiological saline (controls), Tween 80 (0.5%), or octanoylguanosine (5.0 μmoles/mouse/day in 0.5% Tween 80). On day 7 following CP administration all 10 animals from each of the 3 groups were bled and then sacrificed by cervical dislocation. Spleens were removed, weighed, and fixed in 10% formalin for later histological examination. Complete blood cell counts were performed on the collected blood.

Test [13] shares this test system. The test can be described thus: Dose-response, hematopoietic recovery after cyclophosphamide (Example 45). It is filed as in vivo, Balb/C mice. As to the method: Cyclophosphamide (CP) (275 mg/kg, i.p.) was administered to 45 Balb/C female mice weighing approximately 20 grams each. Twenty-four hours later and each day thereafter for a total of 6 days, mice were given a 0.4 ml i.p. injection of either physiological saline (controls), Tween 80 (0.5%), or one of three different doses of octanoylguanosine ([…]). On day 7 following CP administration all 9 animals from each of the […] were bled and then sacrificed by cervical dislocation. Spleens were removed and weighed, and complete blood cell counts performed.

Where [14] appears, read: day 5, palmitoylguanosine 2.0, palmitoyldeoxyguanosine 1.0 μmoles/mouse.
The mark [15] stands for this setting: day 7, palmitoylguanosine 1.0 and 2.0, palmitoyldeoxyguanosine 1.0 μmoles/mouse.

The source of these data is patent US6054441A, “Oxypurine nucleosides and their congeners, and acyl derivatives thereof, for improvement of hematopoiesis” (priority 1995, dated 2000).

Regarding `CCCCCCCCCCCCCCCC(=O)OC[C@H]1O[C@@H](n2c(N)nc3c(=O)[nH]c(N)nc32)[C@H](O)[C@@H]1O` [palmitoyl-8-aminoguanosine], in test [1], the Neutrophils entry was “significantly elevated” and the spleen weight result is recorded as “significantly elevated”.
In the case of `CCCCCCCCCCCCCCCC(=O)OC[C@H]1O[C@@H](n2cnc3c(=O)[nH]c(N)nc32)C[C@@H]1O` [palmitoyldeoxyguanosine], the spleen weight result in test [2] is listed as “significantly elevated”; in [3], “significantly elevated”; in test [4] (setting [14]) it was “significantly elevated”; in test [4] (setting [15]), “significantly elevated”; in test [5] (day 10, i.p.), “significantly elevated”; in [7] (day 5, 0.2 μmoles/mouse or greater), “significantly elevated”. Further, the spleen weight entry is given as “significantly elevated” in [7] (day 7, all doses except 0.04 μmoles/mouse); “significantly higher” in test [8] (day 8); “significantly elevated” in test [9]. Further, the total neutrophil counts result is given as “significantly elevated” in [2]; “significantly elevated” in test [4] (setting [14]); “significantly elevated” in [4] (setting [15]); “significantly elevated” in [5] (days 5, 7 and 10, i.p.); “significantly elevated” in test [7] (days 5 and 7, all 6 doses); “significantly higher” in test [8] (day 8). Moreover, the figures for the total neutrophil counts result in test [8] (day 11) and in test [9] were “significantly higher” and “significantly elevated”, respectively. Further, the “white blood cell counts” value is “significantly elevated” in test [2]; “significantly elevated” in [4] (setting [14]); “significantly elevated” in test [4] (setting [15]); “significantly elevated” in test [5] (days 5, 7 and 10, i.p.); “significantly elevated” in [7] (day 5, 0.4 μmoles/mouse or greater); “statistically significant differences were seen at all doses” in test [7] (day 7, all doses). Besides, in [9], the “white blood cell counts” value is listed as “significantly elevated”. Further, the number of myelocytes result in [3] (femoral bone marrow) is “significantly greater”. In addition, the “relative potency in elevating spleen weight and cell counts” value in [4] (vs palmitoylguanosine) is listed as “more potent in elevating these parameters than the same or even a 2-fold greater dose of palmitoylguanosine”. Further, the Lymphocytes result in test [5] (day 10, i.p.) is “significantly elevated”. In addition, the Platelets entry in test [5] (day 10, i.p.) is “significantly elevated”. For the same compound, the “prevention of apoptotic cell death due to IL-3 deprivation” value in [6] was “significantly reduced the percentage of dead cells”. In addition, the platelet counts entry in test [8] (day 5, 1 μmole/mouse, 3 days before 5-FU) is reported as “significantly elevated”; in test [8] (day 8) it was “significantly higher”; in [8] (day 11) it was “significantly higher”. Further, the lymphocyte counts result in [8] (day 11) is “significantly higher”. Further, in test [8] (day 11), the spleen weights result is recorded as “significantly higher”. The “total white blood cell counts” value in test [8] (day 11) is “significantly higher”.
As to `CCCCCCCC(=O)OC[C@H]1O[C@@H](n2cnc3c(=O)[nH]c(N)nc32)[C@H](O)[C@@H]1O`, the spleen weight result is on record as “significantly larger spleens” in [10]; “significantly greater” in [12] (Tween 80 0.5%, octanoylguanosine 5.0 μmoles/mouse/day); “significantly larger spleens” in [13] (day 7, 0.5, 2.5 or 5 μmoles/mouse/day, vs controls and Tween 80). The neutrophil counts result in test [11] (50 mg/kg in 0.02% and 0.2% Tween 80, vs saline) is “significantly different from controls”; in [11] (50 mg/kg in 0.2% vs in 0.02% Tween 80) it was “significantly higher”. The Neutrophils result in [12] (vs control or Tween 80) is recorded as “significantly greater numbers”. For the same compound, the “peripheral white blood cells (WBC)” value in [12] (vs control or Tween 80) is on record as “significantly greater numbers”. Besides, the “histological examination of spleens” value in test [12] (vs saline and Tween 80) was “much greater lymphopoiesis (increased white pulp) and myelopoiesis (increased red pulp)”. Further, in test [13] (day 7, highest dose (10 μmoles)), the spleen size result is “largest spleens”. The “total number of leukocytes” value in test [13] (day 7, vs control) is given as “significantly increased above control values in a dose-dependent manner”. In addition, the “total number of neutrophils” value in [13] (day 7, vs control) is recorded as “significantly increased above control values in a dose-dependent manner”. Also, the “accelerating regeneration of hematopoiesis” value in [13] (middle dose 2.5 μmoles) is given as “nearly as effective as the highest dose”.
